# In patent US20230107186A1, “COBICISTAT FOR PREVENTION AND/OR TREATMENT OF CORONAVIRUS INFECTIONS” (priority 2020, published 2023):
# Where a SMILES comes first, the peptide text is derived from it. The star is where a group is joined. Cbz = O=C(OCc1ccccc1)*
# Key:
# SARS-CoV-2 [1] = assay: Inhibition of SARS-CoV-2 replication in cell lines (viral RNA by qPCR); assay type: cell-based
# [2] = Viability of uninfected cell lines (MTT assay); assay type: cell-based, human; african green monkey; conditions: human (Calu-3, T84); African green monkey (Vero E6); uninfected Calu-3, T84, Vero E6; 48 h; MTT; read-out: half cytotoxic concentration (CC50) range
# Protocol: (§1) D) Uninfected cell lines of lung (Calu-3), gut (T84) and kidney (Vero E6) origin were left untreated or treated with serial dilutions of cobicistat. Forty-eight hours post-treatment cellular viability was measured by MTT assay. Data, expressed as mean±SD of three independent experiments, were normalized to the untreated control and CC50 values were calculated by nonlinear regression.
# (§2) Cell viability was evaluated by (3-[4,5-dimethylthiazol-2-yl]-2,5 diphenyl tetrazolium bromide) (MTT) assay and by crystal violet staining as previously described (Shytaj et al. 2020; Feoktistova, Geserick, and Leverkus 2016). Briefly, the MTT assay was conducted using the CellTiter 96® Non-Radioactive Cell Proliferation Assay (MTT) (Promega; Madison, Wis., USA). Cells were plated in a 96-well plate at a concentration of 3×10^6 cells/mL in 100 μl of medium. The MTT solution (15 μl) was added to each well and, after 2-4 h, the reaction was stopped by the addition of 100 μl of 10% SDS. Absorbance values were acquired using an Infinite 200 PRO (Tecan, Männedorf, Switzerland) multimode plate reader at 570 nm wavelength.
# (§3) Data normality assumptions were tested by D'Agostino & Pearson normality test (for >3). […] Synergy scores were calculated using the SynergyFinder web-tool (Ianevski et al. 2020) using the Zero Interaction Potency (ZIP) model (Yadav et al. 2015).
# [3] = system: Calu-3, T84 and Vero E6 cells; assay: Viability of uninfected cell lines (MTT assay); assay type: cell-based, human; african green monkey; conditions: cobicistat 5-10 μM
# Protocol: as §1, §2, §3
# 3CLpro = 3CLpro (Severe acute respiratory syndrome coronavirus 2, UniProt P0DTD1); assay: 3CLpro FRET assay; assay type: biochemical, SARS-CoV-2
# SARS-CoV-2 S-protein = SARS-CoV-2 S-protein (Severe acute respiratory syndrome coronavirus 2, UniProt P0DTC2); assay: Syncytia formation assay in Vero E6 cells transfected with the S-protein; assay type: cell-based
# SARS-CoV-2 [4] = assay type: cell-based; conditions: cobicistat 5-10 μM; MTT and crystal violet; Calu-3, T84, Vero E6
# HIV-1 protease = HIV-1 protease (Human immunodeficiency virus type 1 group M subtype B, UniProt P04585); conditions: read-out: EC50 against the HIV-1 protease; selleckchem product page; cited from earlier work
# [5] = humans, standard dosing 150 mg/day; cited from earlier work
# [6] = mice, 50 mg/Kg; cited from earlier work
SMILES,"viral RNA release in supernatant (SARS-CoV-2 [1]; Calu-3, Vero E6, T84, MOI 0.05 and 0.5, treated 2 h post-infection)","virus RNA amounts by qPCR, intracellular and supernatant (SARS-CoV-2 [1]; Calu-3 cells, time course, low micromolar concentrations)","IC50 (SARS-CoV-2 [1]; Severe acute respiratory syndrome coronavirus 2, 48 h, read-out: range of IC50 concentrations) [µM]",CC50 at 48 h [2] [µM],tolerability by uninfected cells [3],effect on catalytic activity of 3CLpro (3CLpro),concentration range with effect in syncytia assay (SARS-CoV-2 S-protein) [µM],syncytia formation (SARS-CoV-2 S-protein; 24 h post transfection),viability of infected cells (SARS-CoV-2 [4]),EC50 (HIV-1 protease) [µM],maximum plasma concentrations [5],plasma levels compared with in vitro IC50 and CC50 [6]
"CC(C)c1nc(CN(C)C(=O)N[C@@H](CCN2CCOCC2)C(=O)N[C@H](CC[C@H](Cc2ccccc2)NC(=O)OCc2cncs2)Cc2ccccc2)cs1 [Cobicistat, 1,3-thiazol-5-ylmethyl [(2R,5R)-5-{[(2S)-2-({[(2-isopropyl-1,3-thiazol-4-yl)methyl](methyl)carbamoyl}amino)-4-(morpholin-4-yl)butanoyl]amino}-1,6-diphenylhexan-2-yl]carbamate]",dose dependent effect in decreasing viral RNA release,dose dependent inhibitory effect,0.58 to 8.76,38.7 to 53,well tolerated,inactive,5 to 10,decreased syncytia formation,partially rescue viability of infected cells,> 30,≈ 1 μM,"clearly above all IC50 values calculated in our experiments, while remaining below the CC50 concentrations"
CC(C)C[C@@H](C=O)NC(=O)[C@H](CC(C)C)NC(=O)[C@H](CC(C)C)NC(=O)OCc1ccccc1 [MG-132] (Cbz-Leu-Leu-Leu-aldehyde),,,,,,potently reduced the catalytic activity,,,,,,
